Reference: patent publication US5086066A, “Method of providing anxiolytic and antipsychotic treatment with substituted benzamides” (priority 1988, dated 1992)

Experiments:
rats = assay: hyperactivity induced by injection of amphetamine into the nucleus accumbens (motor activity), antipsychotic activity; format: in vivo
Description: Tests were conducted to measure the antipsychotic activity of the compounds of the invention. In particular, the hyperactivity induced in rats by the perfusion of amphetamine into the nucleus accumbens was evaluated. This test consists in determining the effect of the compounds of the invention on hyperactivity produced in rats by the injection of amphetamine into the nucleus accumbens. Hyperactivity was induced by injecting 20 μg of amphetamine bilaterally into the nucleus accumbens. The compounds of the invention were administered subcutaneously at doses of 1 mg/kg and 10 mg/kg, 40 minutes before the injection of amphetamine. For each dose of test product, a group of 5 animals was used. A group treated only with amphetamine and a reference group which received only an inert vehicle comprised 10 animals.
Immediately after the injection of amphetamine, the rats were placed in individual cages equipped with photoelectric cells. Motor activity, characterized by the number of shifts from place to place in these cages, was determined by the number of interruptions of a light beam striking these cells. The measurements were made during the 80 minutes following the injection of amphetamine. The results, expressed as the number of shifts from place to place per 10-minute period, are collated in Table 2.

[1] = acute toxicity, median lethal dose (LD50) intravenously; conditions: mouse, in vivo, iv
Description: The compounds of the invention were also subjected to a study of acute toxicity when injected intravenously in male mice and female mice, which enabled the median lethal doses (LD50) to be determined.

mice = assay: two compartment (dark and light) box test, anxiolytic activity; format: in vivo; conditions: for % time in black compartment / Black compartment rearings/5 min / Black compartment transits/5 min / Delay white → black / White compartment rearings/5 min / White compartment transits/5 min: 40 min after administration, S.E.M. <12.6%, n = 5; for minimal effective dose: Mus musculus, sc, 40 min, subcutaneous, mice, read-out: dose at and above which anxiolytic activity is manifested
Description: The two compartment box test was conducted in mice to evaluate anxiolytic activity. This test is based on a natural aversion of mice to light. The apparatus used is a box containing two compartments, one of which is dark (labeled "black compartment" in the Table 1) and the other illuminated (labeled "white compartment" in Table 1). The apparatus is designed to allow the animal to choose between staying in either of the two compartments. Under normal conditions, the mice avoid light and usually remain in the dark compartment. Under the influence of an anxiolytic agent, however, exploration of the illustrated compartment predominates. The test consists of placing each mouse in the center of the illuminated compartment and observing the animal's behavior by video system for 5 minutes. The number of exploratory rearings and the number of displacements (the crossing of lines traced on the floor of each compartment constitute "passages") are then recorded for each compartment. An anxiolytic effect induced by a drug, such as diazepam, is characterized by an increase in the number of exploratory rearings and in the number of passages into the illuminated compartment. The compounds of the invention were injected subcutaneously at variable doses, each dose being administered to a group of 5 mice.

Compound: CC(N)Cc1ccccc1 (stereo not drawn) [Amphetamine, amphetamine, reference compound]
- Motor activity (rats; amphetamine alone 20 μg bilaterally into nucleus accumbens, time 10 min): 31 ± 4 shifts from place to place/10
- Motor activity (rats; amphetamine alone 20 μg bilaterally into nucleus accumbens, time 20 min): 48 ± 5 shifts from place to place/10
- Motor activity (rats; amphetamine alone 20 μg bilaterally into nucleus accumbens, time 30 min): 66 ± 7 shifts from place to place/10
- Motor activity (rats; amphetamine alone 20 μg bilaterally into nucleus accumbens, time 40 min): 59 ± 7 shifts from place to place/10
- Motor activity (rats; amphetamine alone 20 μg bilaterally into nucleus accumbens, time 50 min): 36 ± 5 shifts from place to place/10
- Motor activity (rats; amphetamine alone 20 μg bilaterally into nucleus accumbens, time 60 min): 29 ± 4 shifts from place to place/10
- Motor activity (rats; amphetamine alone 20 μg bilaterally into nucleus accumbens, time 70 min): 19 ± 3 shifts from place to place/10
- Motor activity (rats; amphetamine alone 20 μg bilaterally into nucleus accumbens, time 80 min): 8 ± 3 shifts from place to place/10

Compound: CCN(CC)CCNC(=O)c1cc(Cl)c(NC2=NC(C)CN2)cc1OC (stereo not drawn) [Compound 1, N-[2-(diethylamino)ethyl]-2-methoxy-4-[(4,5-dihydro-4-methyl-1H-imidazol-2-yl)amino]-5-chlorobenzamide]
- LD50 ([1]; female mice): 24 mg/kg
- LD50 ([1]; male mice): 19.5 mg/kg
- Motor activity (rats; 1 mg/kg s.c. 40 min before amphetamine 20 μg, time 10 min): 49 ± 9 shifts from place to place/10 minutes
- Motor activity (rats; 1 mg/kg s.c. 40 min before amphetamine 20 μg, time 20 min): 35 ± 3 shifts from place to place/10 minutes
- Motor activity (rats; 1 mg/kg s.c. 40 min before amphetamine 20 μg, time 30 min): 45 ± 8 shifts from place to place/10 minutes
- Motor activity (rats; 1 mg/kg s.c. 40 min before amphetamine 20 μg, time 40 min): 40 ± 8 shifts from place to place/10 minutes
- Motor activity (rats; 1 mg/kg s.c. 40 min before amphetamine 20 μg, time 50 min): 11 ± 3 shifts from place to place/10 minutes
- Motor activity (rats; 1 mg/kg s.c. 40 min before amphetamine 20 μg, time 60 min): 12 ± 2 shifts from place to place/10 minutes
- Motor activity (rats; 1 mg/kg s.c. 40 min before amphetamine 20 μg, time 70 min): 8 ± 1 shifts from place to place/10 minutes
- Motor activity (rats; 10 mg/kg s.c. 40 min before amphetamine 20 μg, time 10 min): 27 ± 4 shifts from place to place/10 minutes
- Motor activity (rats; 10 mg/kg s.c. 40 min before amphetamine 20 μg, time 20 min): 27 ± 6 shifts from place to place/10 minutes
- Motor activity (rats; 10 mg/kg s.c. 40 min before amphetamine 20 μg, time 30 min): 13 ± 3 shifts from place to place/10 minutes
- Motor activity (rats; 10 mg/kg s.c. 40 min before amphetamine 20 μg, time 40 min): 11 ± 2 shifts from place to place/10 minutes
- Motor activity (rats; 10 mg/kg s.c. 40 min before amphetamine 20 μg, time 50 min): 8 ± 2 shifts from place to place/10 minutes
- % time in black compartment (mice; 0.01 mg/kg s.c.): 36%
- Black compartment rearings/5 min (mice; 0.01 mg/kg s.c.): 16 rearings/5 min
- Black compartment transits/5 min (mice; 0.01 mg/kg s.c.): 37 transits/5 min
- Delay white → black (mice; 0.01 mg/kg s.c.): 19 s
- White compartment rearings/5 min (mice; 0.01 mg/kg s.c.): 57 rearings/5 min
- White compartment transits/5 min (mice; 0.01 mg/kg s.c.): 77 transits/5 min
- % time in black compartment (mice; 0.1 mg/kg s.c.): 27%
- Black compartment rearings/5 min (mice; 0.1 mg/kg s.c.): 14 rearings/5 min
- Black compartment transits/5 min (mice; 0.1 mg/kg s.c.): 23 transits/5 min
- Delay white → black (mice; 0.1 mg/kg s.c.): 22 s
- White compartment rearings/5 min (mice; 0.1 mg/kg s.c.): 73 rearings/5 min
- White compartment transits/5 min (mice; 0.1 mg/kg s.c.): 79 transits/5 min
- minimal effective dose (mice): ≥ 0.01 mg/kg

Compound: C=CCN1CCCC1CNC(=O)c1cc(Cl)c(NC2=NC(C)CN2)cc1OC (stereo not drawn) [Compound 2, N-(1-allyl-2-pyrrolidinylmethyl)-2-methoxy-4-[(4,5-dihydro-4-methyl-1H-imidazol-2-yl)amino]-5-chlorobenzamide]
- LD50 ([1]; female mice): 42 mg/kg
- LD50 ([1]; male mice): 42 mg/kg
- % time in black compartment (mice; 0.01 mg/kg s.c.): 49%
- Black compartment rearings/5 min (mice; 0.01 mg/kg s.c.): 27 rearings/5 min
- Black compartment transits/5 min (mice; 0.01 mg/kg s.c.): 30 transits/5 min
- Delay white → black (mice; 0.01 mg/kg s.c.): 18 s
- White compartment rearings/5 min (mice; 0.01 mg/kg s.c.): 43 rearings/5 min
- White compartment transits/5 min (mice; 0.01 mg/kg s.c.): 51 transits/5 min
- % time in black compartment (mice; 0.1 mg/kg s.c.): 29%
- Black compartment rearings/5 min (mice; 0.1 mg/kg s.c.): 20 rearings/5 min
- Black compartment transits/5 min (mice; 0.1 mg/kg s.c.): 25 transits/5 min
- Delay white → black (mice; 0.1 mg/kg s.c.): 20 s
- White compartment rearings/5 min (mice; 0.1 mg/kg s.c.): 83 rearings/5 min
- White compartment transits/5 min (mice; 0.1 mg/kg s.c.): 80 transits/5 min
- minimal effective dose (mice): ≥ 0.01 mg/kg

Compound: CCN(CC)CCNC(=O)c1cc(Br)c(NC2=NC(C)CN2)cc1OC (stereo not drawn) [Compound 3, N-[2-(diethylamino)ethyl]-2-methoxy-4-[(4,5-dihydro-4-methyl-1H-imidazol-2-yl)amino]-5-bromo-benzamide]
- LD50 ([1]; female mice): 24 mg/kg
- LD50 ([1]; male mice): 22 mg/kg
- % time in black compartment (mice; 0.1 mg/kg s.c.): 30%
- Black compartment rearings/5 min (mice; 0.1 mg/kg s.c.): 18 rearings/5 min
- Black compartment transits/5 min (mice; 0.1 mg/kg s.c.): 18 transits/5 min
- Delay white → black (mice; 0.1 mg/kg s.c.): 23 s
- White compartment rearings/5 min (mice; 0.1 mg/kg s.c.): 97 rearings/5 min
- White compartment transits/5 min (mice; 0.1 mg/kg s.c.): 104 transits/5 min

Compound: CCN1CCCC1CNC(=O)c1cc(Cl)c(NC2=NC(C)CN2)cc1OC (stereo not drawn) [Compound 5, N-(1-ethyl-2-pyrrolidinylmethyl)-2-methoxy-4-[(4,5-dihydro-4-methyl-1H-imidazol-2-yl)amino]-5-chlorobenzamide]
- % time in black compartment (mice; 1 mg/kg s.c.): 32%
- Black compartment rearings/5 min (mice; 1 mg/kg s.c.): 14 rearings/5 min
- Black compartment transits/5 min (mice; 1 mg/kg s.c.): 19 transits/5 min
- Delay white → black (mice; 1 mg/kg s.c.): 23 s
- White compartment rearings/5 min (mice; 1 mg/kg s.c.): 65 rearings/5 min
- White compartment transits/5 min (mice; 1 mg/kg s.c.): 89 transits/5 min
- % time in black compartment (mice; 10 mg/kg s.c.): 32%
- Black compartment rearings/5 min (mice; 10 mg/kg s.c.): 15 rearings/5 min
- Black compartment transits/5 min (mice; 10 mg/kg s.c.): 16 transits/5 min
- Delay white → black (mice; 10 mg/kg s.c.): 22 s
- White compartment rearings/5 min (mice; 10 mg/kg s.c.): 68 rearings/5 min
- White compartment transits/5 min (mice; 10 mg/kg s.c.): 80 transits/5 min

Compound: CCN(CC)CCNC(=O)c1cc(Br)c(NC2=NCCN2)cc1OC [Compound 6, N-[2-(diethylamino)ethyl]-2-methoxy-4-[(4,5-dihydro-1H-imidazol-2-yl)amino]-5-bromobenzamide]
- LD50 ([1]; female mice): 118 mg/kg
- LD50 ([1]; male mice): 103 mg/kg
- % time in black compartment (mice; 0.1 mg/kg s.c.): 27%
- Black compartment rearings/5 min (mice; 0.1 mg/kg s.c.): 39 rearings/5 min
- Black compartment transits/5 min (mice; 0.1 mg/kg s.c.): 50 transits/5 min
- Delay white → black (mice; 0.1 mg/kg s.c.): 13 s
- White compartment rearings/5 min (mice; 0.1 mg/kg s.c.): 40 rearings/5 min
- White compartment transits/5 min (mice; 0.1 mg/kg s.c.): 48 transits/5 min

Compound: CCN(CC)CCNC(=O)c1cc(Cl)c(NC2=NCCO2)cc1OC [Compound 7, N-[2-(diethylamino)ethyl]-2-methoxy-4-[(4,5-dihydro-2-oxazolyl)amino]-5-chlorobenzamide]
- % time in black compartment (mice; 0.1 mg/kg s.c.): 27%
- Black compartment rearings/5 min (mice; 0.1 mg/kg s.c.): 16 rearings/5 min
- Black compartment transits/5 min (mice; 0.1 mg/kg s.c.): 16 transits/5 min
- Delay white → black (mice; 0.1 mg/kg s.c.): 24 s
- White compartment rearings/5 min (mice; 0.1 mg/kg s.c.): 69 rearings/5 min
- White compartment transits/5 min (mice; 0.1 mg/kg s.c.): 68 transits/5 min
